Our source for the IC50 values is US9073821B2, “Hydroxamic acid derivative” (priority 2010, dated 2015).

One assay addresses Pseudomonas aeruginosa LpxC enzyme (Pseudomonas aeruginosa (strain ATCC 15692 / DSM 22644 / CIP 104116 / JCM 14847 / LMG 12228 / 1C / PRS 101 / PAO1), UniProt P47205). Description: biochemical. It counts as biochemical.
Conditions: not given
As to `CNC(=O)C(C(=O)NO)N(C)C(=O)c1ccc(C#Cc2ccc(CN3C4CCC3CC4)cc2)cc1` (stereo not shown) [Compound 527, 2-{[(4-{[4-(7-azabicyclo[2.2.1]hept-7-ylmethyl)phenyl]ethynyl}phenyl)carbonyl](methyl)amino}-N-hydroxy-N′-methylpropanediamide], the IC50 was in the range of 10 to 100 nM.

Still in this assay, the particulars now being: class symbols A/B/C by IC50; Table 3; read-out: Enzyme inhibitory activity (inhibitory activity on Pseudomonas aeruginosa LpxC enzyme).
As to `CN(C(=O)c1ccc(C#Cc2ccc(CN3CCCOCC3)cc2)cc1)C(C)(C(=O)NO)C(=O)NCc1ccccn1` (stereo not shown) [Compound 521, N-hydroxy-2-methyl-2-{methyl[(4-{[4-(1,4-oxazepan-4-ylmethyl)phenyl]ethynyl}phenyl)carbonyl]amino}-N′-(pyridin-2-ylmethyl)propanediamide], the IC50 was under 10 nM. Same read-out and setting: then `CNC(=O)C(C(=O)NO)N(C)C(=O)c1ccc(C#Cc2ccc(CN(C)Cc3ccccc3)cc2)cc1` (stereo not shown) [Compound 495, 2-[({4-[(4-{[benzyl(methyl)amino]methyl}phenyl)ethynyl]phenyl}carbonyl)(methyl)amino]-N-hydroxy-N′-methylpropanediamide], with under 10 nM. The same measure, in the same setting: the value for `CCOC1CN(Cc2ccc(C#Cc3ccc(C(=O)N(C)C(C(=O)NC)C(=O)NO)cc3)cc2OC)C1` (stereo not shown) [Compound 572, 2-[{[4-({4-[(3-ethoxyazetidin-1-yl)methyl]-3-methoxyphenyl}ethynyl)phenyl]carbonyl}(methyl)amino]-N-hydroxy-N′-methylpropanediamide] was 10 to 100 nM.

Still in this assay, the particulars now being: inhibitory activity on Pseudomonas aeruginosa LpxC enzyme, class symbols A/B/C; read-out: Enzyme inhibitory activity.
As to `CCCNc1ccc(-c2ccc(C(=O)N(C)C(C(=O)NC)C(=O)NO)cc2)cc1` (stereo not shown) [Compound 245, N-hydroxy-N′-methyl-2-(methyl {[4′-(propylamino)biphenyl-4-yl]carbonyl}amino)propanediamide], the IC50 was under 10 nM.

Take `O=C(NC(C(=O)NO)C(=O)NCCO)c1ccc(-c2ccc(OCCO)cc2)cc1` (stereo not shown) [Compound 122, N-hydroxy-2-({[4′-(2-hydroxyethoxy)biphenyl-4-yl]carbonyl}amino)-N′-(2-hydroxyethyl)propanediamide]: the IC50 was in the range of 10 to 100 nM. The same measure, in the same setting: then `CNC(=O)C(C(=O)NO)N(C)C(=O)c1ccc(-c2ccc3ncccc3c2)cc1` (stereo not shown) [Compound 200, N-hydroxy-N′-methyl-2-{methyl[4-(quinolin-6-yl)benzoyl]amino}propanediamide], with under 10 nM. With `CNC(=O)C(C(=O)NO)N(C)C(=O)c1ccc(C#Cc2ccc(C(C)N)cc2)cc1` (stereo not shown) [Compound 358, 2-{[(4-{[4-(1-aminoethyl)phenyl]ethynyl}phenyl)carbonyl](methyl)amino}-N-hydroxy-N′-methylpropanediamide], the IC50 was 10 to 100 nM. In the case of `CNC(=O)C(C(=O)NO)N(C)C(=O)c1ccc(C#Cc2ccc(CN3CCOCC3)cc2)cc1` (stereo not shown) [Compound 167, N-hydroxy-N′-methyl-2-[methyl(4-{[4-(morpholin-4-ylmethyl)phenyl]ethynyl}benzoyl)amino]propanediamide], the IC50 is under 10 nM.

For `CNC(=O)[C@@](C)(C(=O)NO)N(C)C(=O)c1ccc(C#Cc2ccc(CS(C)(=O)=O)cc2)cc1` [Compound 422, (2S)-N-hydroxy-N′,2-dimethyl-2-(methyl {[4-({4-[(methylsulfonyl)methyl]phenyl}ethynyl)phenyl]carbonyl}amino)propanediamide], the IC50 is under 10 nM.

Regarding `CCCOc1ccc(-c2ccc(C(=O)N(C)C(C(=O)NC)C(=O)NO)cc2)cc1` (stereo not shown) [Compound 212, N-hydroxy-N′-methyl-2-{methyl[(4′-propoxybiphenyl-4-yl)carbonyl]amino}propanediamide], the IC50 is under 10 nM. `CNC(=O)C(C(=O)NO)N(C)C(=O)c1ccc(-c2ccc(C(C)(F)F)cc2)cc1` (stereo not shown) [Compound 253, 2-[{[4′-(1,1-difluoroethyl)biphenyl-4-yl]carbonyl}(methyl)amino]-N-hydroxy-N′-methylpropanediamide]: the IC50 was under 10 nM. Still for that read-out and setting: the value for `CNC(=O)C(C(=O)NO)N(CCF)C(=O)c1ccc(-c2ccccc2)cc1` (stereo not shown) [Compound 193, 2-[(biphenyl-4-ylcarbonyl)(2-fluoroethyl)amino]-N-hydroxy-N′-methylpropanediamide] was under 10 nM; that for `CN(C(=O)c1ccc(-c2ccccc2)cc1)C(C(=O)NO)C(=O)NCc1ccccc1` (stereo not shown) [Compound 62, N-benzyl-2-[(biphenyl-4-ylcarbonyl)(methyl)amino]-N′-hydroxypropanediamide] was over 100 nM; that for `CNC(=O)C(NC(=O)c1ccc(-c2ccc(OCCCN3CCCOCC3)cc2)cc1)C(=O)NO` (stereo not shown) [Compound 112, N-hydroxy-N′-methyl-2-[({4′-[3-(1,4-oxazepan-4-yl)propoxy]biphenyl-4-yl}carbonyl)amino]propanediamide] was under 10 nM. As for `CNC(=O)C(C(=O)NO)N(C)C(=O)c1ccc(/C=C/c2ccccc2)cc1` (stereo not shown) [Compound 63, N-hydroxy-N′-methyl-2-(methyl {4-[(E)-2-phenylethenyl]benzoyl}amino)propanediamide], the IC50 is 10 to 100 nM. On to `CNC(=O)C(C(=O)NO)N(C)C(=O)c1ccc(-c2ccc(OC(F)F)cc2)cc1` (stereo not shown) [Compound 51, 2-[{[4′-(difluoromethoxy)biphenyl-4-yl]carbonyl}(methyl)amino]-N-hydroxy-N′-methylpropanediamide], for which the IC50 was under 10 nM. `O=C(NC(C(=O)NO)C(=O)NCC1CC1)c1ccc(-c2ccc(OCCO)cc2)cc1` (stereo not shown) [Compound 9, N-(cyclopropylmethyl)-N′-hydroxy-2-({[4′-(2-hydroxyethoxy)biphenyl-4-yl]carbonyl}amino)propanediamide]: the IC50 was in the range of 10 to 100 nM. On the same count and under the same terms, the value for `CNC(=O)C(C(=O)NO)N(C)C(=O)c1ccc(-c2ccc(C3(C)OCCO3)cc2)cc1` (stereo not shown) [Compound 254, N-hydroxy-N′-methyl-2-(methyl {[4′-(2-methyl-1,3-dioxolan-2-yl)biphenyl-4-yl]carbonyl}amino)propanediamide] was 10 to 100 nM. For the compound `CNC(=O)C(C(=O)NO)N(C)C(=O)c1ccc(-c2ccc(CCN3CCOCC3)cc2)cc1` (stereo not shown) [Compound 236, N-hydroxy-N′-methyl-2-[methyl({4′-[2-(morpholin-4-yl)ethyl]biphenyl-4-yl}carbonyl)amino]propanediamide], the IC50 is under 10 nM.

Take `CNC(=O)C(C(=O)NO)N(C)C(=O)c1ccc(-c2ccc(OCCCCOC)cc2)cc1` (stereo not shown) [Compound 215, N-hydroxy-2-[{[4′-(4-methoxybutoxy)biphenyl-4-yl]carbonyl}(methyl)amino]-N′-methylpropanediamide]: the IC50 is under 10 nM.

For the compound `CNC(=O)C(C(=O)NO)N(C)C(=O)c1ccc(-c2ccc(NC)c(F)c2)cc1` (stereo not shown) [Compound 38, 2-[{[3′-fluoro-4′-(methylamino)biphenyl-4-yl]carbonyl}(methyl)amino]-N-hydroxy-N′-methylpropanediamide], the IC50 is under 10 nM. In the case of `CNC(=O)C(C(=O)NO)N(C)C(=O)c1ccc(-c2cncc(C(F)(F)F)c2)cc1` (stereo not shown) [Compound 446, N-hydroxy-N′-methyl-2-[methyl({4-[5-(trifluoromethyl)pyridin-3-yl]phenyl}carbonyl)amino]propanediamide], the IC50 was over 100 nM. Same read-out and setting: the value for `CNC(=O)C(C(=O)NO)N(C)C(=O)c1ccc(-c2ccc(SC)nc2)cc1` (stereo not shown) [Compound 469, N-hydroxy-N′-methyl-2-[methyl({4-[6-(methylsulfanyl)pyridin-3-yl]phenyl}carbonyl)amino]propanediamide] was 10 to 100 nM; that for `CN(C(=O)c1ccc(-c2ccccc2)cc1)C(C(N)=O)C(=O)NO` (stereo not shown) [Compound 186, 2-[(biphenyl-4-ylcarbonyl)(methyl)amino]-N-hydroxypropanediamide] was 10 to 100 nM. The same measure, in the same setting: the value for `CNC(=O)C(C)(NC(=O)c1ccc(C#Cc2ccc(CN3CCCOCC3)cc2)cc1)C(=O)NO` (stereo not shown) [Compound 380, N-hydroxy-N′,2-dimethyl-2-{[(4-{[4-(1,4-oxazepan-4-ylmethyl)phenyl]ethynyl}phenyl)carbonyl]amino}propanediamide] was 10 to 100 nM. Consider `CNC(=O)C(C(=O)NO)N(C)C(=O)c1ccc(C2CCCCC2)cc1` (stereo not shown) [Compound 30, 2-[(4-cyclohexylbenzoyl)(methyl)amino]-N-hydroxy-N′-methylpropanediamide], for which the IC50 lay in the range of 10 to 100 nM.

Regarding `CNC(=O)C(C(=O)NO)N(C)C(=O)c1ccc(C#Cc2ccc(CN(C)C3CCCCC3)cc2)cc1` (stereo not shown) [Compound 327, 2-[({4-[(4-{[cyclohexyl(methyl)amino]methyl}phenyl)ethynyl]phenyl}carbonyl)(methyl)amino]-N-hydroxy-N′-methylpropanediamide], the IC50 was in the range of 10 to 100 nM. Still for that read-out and setting: then `CCOCc1ccc(-c2ccc(C(=O)N(C)C(C(=O)NC)C(=O)NO)cc2)cc1` (stereo not shown) [Compound 285, 2-[{[4′-(ethoxymethyl)biphenyl-4-yl]carbonyl}(methyl)amino]-N-hydroxy-N′-methylpropanediamide], with under 10 nM; and `CNC(=O)C(C(=O)NO)N(C)C(=O)c1ccc(-c2ccc(C#CCN3CCOCC3)cc2)cc1` (stereo not shown) [Compound 390, N-hydroxy-N′-methyl-2-[methyl({4′-[3-(morpholin-4-yl)prop-1-yn-1-yl]biphenyl-4-yl}carbonyl)amino]propanediamide], with under 10 nM; and `CNC(=O)C(C(=O)NO)N(C)C(=O)c1ccc(-c2ccc(CCF)cc2)cc1` (stereo not shown) [Compound 238, 2-[{[4′-(2-fluoroethyl)biphenyl-4-yl]carbonyl}(methyl)amino]-N-hydroxy-N′-methylpropanediamide], with under 10 nM.

Consider `CNC(=O)C(C(=O)NO)N(C)C(=O)c1ccc(-n2cccc2)cc1` (stereo not shown) [Compound 307, N-hydroxy-N′-methyl-2-(methyl {[4-(1H-pyrrol-1-yl)phenyl]carbonyl}amino)propanediamide], for which the IC50 was over 100 nM.

With `CNC(=O)C(C(=O)NO)N(C)C(=O)c1ccc(-c2ccc(OCC(C)(C)O)cc2)cc1` (stereo not shown) [Compound 280, N-hydroxy-2-[{[4′-(2-hydroxy-2-methylpropoxy)biphenyl-4-yl]carbonyl}(methyl)amino]-N′-methylpropanediamide], the IC50 is under 10 nM. As to `CCN(C(=O)c1ccc(-c2ccccc2)cc1)C(C(=O)NC)C(=O)NO` (stereo not shown) [Compound 159, 2-[(biphenyl-4-ylcarbonyl)(ethyl)amino]-N-hydroxy-N′-methylpropanediamide], the IC50 was in the range of 10 to 100 nM.
